Assay results taken from ChEMBL document CHEMBL1127810, “Synthesis of high specific activity [3H]-9-cis-retinoic acid and its application for identifying retinoids with unusual binding properties” (J Med Chem, 1994).

Assays:
[1] = target: T1, Retinoic acid receptor RXR-gamma (Homo sapiens, UniProt P48443); test: Binding affinity against retinoic Acid X gamma receptors co-transfected into CV-1 cells; assay type: cell-based
T1 sequence (P48443 whole entry): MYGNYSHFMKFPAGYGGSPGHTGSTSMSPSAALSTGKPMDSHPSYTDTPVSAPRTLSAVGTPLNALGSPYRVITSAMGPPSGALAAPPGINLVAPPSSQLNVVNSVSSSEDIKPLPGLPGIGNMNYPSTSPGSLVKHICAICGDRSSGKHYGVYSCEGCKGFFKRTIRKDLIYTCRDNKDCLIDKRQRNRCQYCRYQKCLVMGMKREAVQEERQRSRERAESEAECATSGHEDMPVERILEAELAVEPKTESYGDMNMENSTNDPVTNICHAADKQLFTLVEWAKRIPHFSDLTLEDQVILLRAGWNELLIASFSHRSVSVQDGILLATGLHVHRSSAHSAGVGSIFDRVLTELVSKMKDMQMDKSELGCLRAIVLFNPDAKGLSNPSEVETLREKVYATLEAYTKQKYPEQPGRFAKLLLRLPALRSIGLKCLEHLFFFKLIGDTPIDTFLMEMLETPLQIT

[2] = target: T2, Retinoic acid receptor RXR-alpha (Homo sapiens, UniProt P19793); test: Binding affinity against retinoic Acid X alpha receptors co-transfected into CV-1 cells; assay type: cell-based
T2 sequence (P19793 whole entry): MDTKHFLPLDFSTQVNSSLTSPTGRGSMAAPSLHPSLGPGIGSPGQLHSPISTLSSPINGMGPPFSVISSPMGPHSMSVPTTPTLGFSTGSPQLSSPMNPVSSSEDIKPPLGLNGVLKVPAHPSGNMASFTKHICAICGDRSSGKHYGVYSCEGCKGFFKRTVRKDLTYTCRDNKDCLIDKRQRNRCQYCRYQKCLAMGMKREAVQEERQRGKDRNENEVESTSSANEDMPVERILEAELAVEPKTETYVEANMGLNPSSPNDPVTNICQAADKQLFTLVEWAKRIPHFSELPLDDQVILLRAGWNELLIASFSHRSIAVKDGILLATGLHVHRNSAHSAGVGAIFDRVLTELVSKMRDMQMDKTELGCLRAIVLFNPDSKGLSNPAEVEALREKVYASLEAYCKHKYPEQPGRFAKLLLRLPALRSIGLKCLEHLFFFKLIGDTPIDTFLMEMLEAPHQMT

[3] = target: T3, Retinoic acid receptor RXR-beta (Homo sapiens, UniProt P28702); test: Binding affinity against retinoic Acid X beta receptor using [3H]- -9-cis-Retinoic Acid in competitive binding assay
T3 sequence (P28702 whole entry): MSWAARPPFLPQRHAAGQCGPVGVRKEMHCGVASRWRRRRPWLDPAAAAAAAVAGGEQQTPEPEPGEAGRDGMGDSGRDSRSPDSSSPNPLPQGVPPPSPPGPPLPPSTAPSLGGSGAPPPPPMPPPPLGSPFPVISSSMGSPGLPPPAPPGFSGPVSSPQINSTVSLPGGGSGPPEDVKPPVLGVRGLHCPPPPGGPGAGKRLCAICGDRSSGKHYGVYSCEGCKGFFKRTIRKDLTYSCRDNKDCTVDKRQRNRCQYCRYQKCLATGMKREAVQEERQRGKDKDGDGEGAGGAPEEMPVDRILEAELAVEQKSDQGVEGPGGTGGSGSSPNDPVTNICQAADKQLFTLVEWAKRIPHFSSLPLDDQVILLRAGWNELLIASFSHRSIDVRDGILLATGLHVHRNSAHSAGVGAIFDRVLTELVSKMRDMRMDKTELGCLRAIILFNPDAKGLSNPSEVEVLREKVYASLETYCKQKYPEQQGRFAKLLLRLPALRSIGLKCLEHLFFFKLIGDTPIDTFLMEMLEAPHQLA

[4] = target: T1, Retinoic acid receptor RXR-gamma; test: Binding affinity against retinoic Acid X gamma receptor using [3H]- -9-cis-Retinoic Acid in competitive binding assay
[5] = target: T3, Retinoic acid receptor RXR-beta; test: Binding affinity against retinoic Acid X beta receptors co-transfected into CV-1 cells; assay type: cell-based
[6] = target: T2, Retinoic acid receptor RXR-alpha; test: Binding affinity against retinoic Acid X alpha receptor using [3H]- -9-cis-Retinoic Acid in competitive binding assay
[7] = target: T4, Retinoic acid receptor alpha (Homo sapiens, UniProt P10276); test: Binding affinity against retinoic Acid alpha receptors co-transfected into CV-1 cells; assay type: cell-based
T4 sequence (P10276 whole entry): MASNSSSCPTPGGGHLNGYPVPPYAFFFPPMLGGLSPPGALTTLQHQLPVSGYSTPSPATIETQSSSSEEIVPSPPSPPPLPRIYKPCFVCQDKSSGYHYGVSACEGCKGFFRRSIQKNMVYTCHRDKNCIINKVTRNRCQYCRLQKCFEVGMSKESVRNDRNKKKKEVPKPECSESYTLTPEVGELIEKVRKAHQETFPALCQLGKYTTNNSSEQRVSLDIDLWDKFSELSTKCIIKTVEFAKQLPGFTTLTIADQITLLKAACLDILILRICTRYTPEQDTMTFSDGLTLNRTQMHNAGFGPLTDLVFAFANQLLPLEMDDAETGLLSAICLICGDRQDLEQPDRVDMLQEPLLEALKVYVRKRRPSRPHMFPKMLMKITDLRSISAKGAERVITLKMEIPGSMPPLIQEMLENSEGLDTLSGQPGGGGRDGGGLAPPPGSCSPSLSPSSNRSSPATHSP

[8] = target: T4, Retinoic acid receptor alpha; test: Binding affinity against retinoic Acid alpha receptor using [3H]- -9-cis-Retinoic Acid in competitive binding assay
[9] = target: T5, Retinoic acid receptor gamma (Homo sapiens, UniProt P13631)
T5 sequence (P13631 whole entry): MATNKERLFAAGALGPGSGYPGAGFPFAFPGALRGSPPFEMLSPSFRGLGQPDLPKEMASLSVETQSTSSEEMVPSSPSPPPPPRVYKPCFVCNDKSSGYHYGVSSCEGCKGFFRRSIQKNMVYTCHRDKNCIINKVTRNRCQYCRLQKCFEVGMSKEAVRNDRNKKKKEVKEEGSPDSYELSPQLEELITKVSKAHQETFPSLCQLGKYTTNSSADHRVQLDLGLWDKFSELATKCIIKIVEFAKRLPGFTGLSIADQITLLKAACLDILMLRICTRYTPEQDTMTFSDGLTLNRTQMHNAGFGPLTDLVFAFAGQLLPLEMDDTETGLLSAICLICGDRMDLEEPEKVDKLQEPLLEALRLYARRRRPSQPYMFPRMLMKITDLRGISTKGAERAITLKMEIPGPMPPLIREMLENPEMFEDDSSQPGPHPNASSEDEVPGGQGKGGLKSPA
Description: Binding affinity against retinoic Acid gamma receptors co-transfected into CV-1 cells

[10] = target: T5, Retinoic acid receptor gamma; remark: listed apart in the source
[11] = target: T6, Retinoic acid receptor beta (Homo sapiens, UniProt P10826); test: Binding affinity against retinoic Acid beta receptor using [3H]- -9-cis-Retinoic Acid in competitive binding assay
T6 sequence (P10826 whole entry): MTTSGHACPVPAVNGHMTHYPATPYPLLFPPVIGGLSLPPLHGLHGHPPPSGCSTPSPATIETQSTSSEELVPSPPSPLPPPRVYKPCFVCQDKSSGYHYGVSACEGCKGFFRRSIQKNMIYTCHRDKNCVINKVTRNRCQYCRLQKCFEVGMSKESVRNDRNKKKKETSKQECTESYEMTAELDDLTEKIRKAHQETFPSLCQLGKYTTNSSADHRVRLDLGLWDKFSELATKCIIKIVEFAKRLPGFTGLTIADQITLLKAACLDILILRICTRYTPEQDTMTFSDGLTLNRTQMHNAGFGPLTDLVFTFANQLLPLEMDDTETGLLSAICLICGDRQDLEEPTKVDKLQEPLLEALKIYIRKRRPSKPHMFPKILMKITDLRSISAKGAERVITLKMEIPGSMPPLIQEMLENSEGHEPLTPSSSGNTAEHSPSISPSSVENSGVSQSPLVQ

[12] = target: T6, Retinoic acid receptor beta; test: Binding affinity against retinoic Acid beta receptors co-transfected into CV-1 cells; assay type: cell-based

| EC50 [1] | EC50 [2] | IC50 [3] | IC50 [4] | EC50 [5] | IC50 [6] | EC50 [7] | IC50 [8] | EC50 [9] | IC50 [10] | IC50 [11] | EC50 [12] | SMILES |
| --- | --- | --- | --- | --- | --- | --- | --- | --- | --- | --- | --- | --- |
| > 10000 nM | > 10000 nM | > 1000 nM | > 1000 nM | > 10000 nM | > 1000 nM | – | – | – | – | – | – | C/C(=C\c1ccc(C(=O)O)cc1)c1ccc2c(c1)C(C)(C)CCC2(C)C |
| 2700 nM | 300 nM | 50 nM | 10 nM | > 10000 nM | 320 nM | > 10000 nM | > 1000 nM | 270 nM | > 1000 nM | 150 nM | > 10000 nM | C/C(=C\c1ccc(C(=O)O)cc1)c1cc2c(cc1C(C)C)C(C)(C)CCC2(C)C |
| 2600 nM | 2900 nM | 50 nM | 10 nM | 2000 nM | 320 nM | 1700 nM | 100 nM | 23 nM | 250 nM | 75 nM | 310 nM | CCc1cc2c(cc1/C(C)=C/c1ccc(C(=O)O)cc1)C(C)(C)CCC2(C)C |
| 1500 nM | 1200 nM | > 1000 nM | 100 nM | 1170 nM | 32 nM | 340 nM | 638 nM | 180 nM | 645 nM | 1170 nM | 230 nM | C/C(=C\c1ccc(C(=O)O)cc1)c1cc2c(cc1C)C(C)(C)CCC2(C)C |
